Numbered stars: 1 amine (or outer) side, 2 acyl side, 3 side chain; on linkers, the order of the positions; unused ones are H or OH. Square brackets hold non-standard residues; d marks the D form. Side chains are listed from the residue outwards. Peptide text beside a SMILES is read from it. * marks the point of attachment. C20 diacid = O=C(O)CCCCCCCCCCCCCCCCCCC(=O)*; γGlu = O=C(O)[C@H](CCC(=O)[*:2])N[*:1]; AEEA = NCCOCCOCC(=O)O; Aib = CC(C)(N)C(=O)O

Data set [1] can be described thus: Turbidity of crude library peptides (absorbance at 600 nm). It counts as physicochemical. Particulars: Physical stability of peptides. The gist of the method: (§1)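 Values reflect mean ThT emission (ex 450, em 480 nm) over 72 h at 40° C, read every 10 min after 5 min shaking at 700 rpm, plus a single initial absorbance at 600 nm for turbidity. Peptides were at 267 μM, pH 4.0 acetate or pH 7.0 phosphate (50 mM), with 4 μM ThT.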

The nature of data set [2]: Fibril formation of crude library peptides (Thioflavin T). Format: physicochemical. Particulars: Physical stability of peptides. On the set-up: key: average ThT fluorescence emission at 480 nm (ex 450 nm), raw units. The gist of the method:
as §1

The target of another data set is GLP1R (Homo sapiens, UniProt P43220). In words: hGLP1R potency, cAMP accumulation in CHO-K1 cells stably overexpressing hGLP1R. Particulars: for EC50: cAMP accumulation, CHO-K1 cells overexpressing hGLP1R, read-out: hGLP1R pEC50 (converted); for SCTR EC50/GLP1R EC50 ratio: selectivity for hGLP1R over hSCTR, cAMP accumulation in CHO-K1 cells. On the set-up: host or cells: CHO-K1. Format: cell-based. An outline of the steps:
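Potency reflects cAMP accumulation measured by time-resolved fluorescence energy transfer after a 30 min room-temperature stimulation in IBMX-containing (0.5 mM) DPBS with casein. Purified peptides were tested in duplicate over eleven threefold dilutions, and EC50 was obtained from sigmoid concentration-response fitting.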

A further data set addresses SCTR (Homo sapiens, UniProt P47872). In words: hSCTR potency, cAMP accumulation in CHO-K1 cells stably overexpressing hSCTR. The arrangement: alternatively Euroscreen ES-712-AF; FAST-0161L; host or cells: CHO-K1. Particulars: cAMP accumulation, CHO-K1 cells overexpressing hSCTR; read-out: hSCTR pEC50 (converted). Format: cell-based. An outline of the steps: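 Potency reflects cAMP accumulation after 30 min agonist exposure at room temperature in hSCTR-expressing CHO-K1 cells, with 0.5 mM IBMX present to block phosphodiesterase. EC50 was derived by nonlinear regression.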
For orientation: Cyclic AMP is a second messenger, typically raised through Gs and lowered through Gi signalling.

Chain of GLP1R (P43220 24-463): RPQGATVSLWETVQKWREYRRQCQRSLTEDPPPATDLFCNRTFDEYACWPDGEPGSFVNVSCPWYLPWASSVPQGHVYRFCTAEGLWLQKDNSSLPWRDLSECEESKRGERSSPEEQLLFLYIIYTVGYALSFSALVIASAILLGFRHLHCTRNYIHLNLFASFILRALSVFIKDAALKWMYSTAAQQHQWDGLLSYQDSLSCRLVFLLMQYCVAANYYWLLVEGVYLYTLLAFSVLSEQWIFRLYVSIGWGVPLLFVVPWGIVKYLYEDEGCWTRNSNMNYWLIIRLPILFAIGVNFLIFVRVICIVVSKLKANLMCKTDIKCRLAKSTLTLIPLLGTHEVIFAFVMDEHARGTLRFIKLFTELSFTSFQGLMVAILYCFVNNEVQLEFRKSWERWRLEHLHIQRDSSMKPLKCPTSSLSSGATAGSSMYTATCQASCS
Chain of SCTR (P47872 23-440): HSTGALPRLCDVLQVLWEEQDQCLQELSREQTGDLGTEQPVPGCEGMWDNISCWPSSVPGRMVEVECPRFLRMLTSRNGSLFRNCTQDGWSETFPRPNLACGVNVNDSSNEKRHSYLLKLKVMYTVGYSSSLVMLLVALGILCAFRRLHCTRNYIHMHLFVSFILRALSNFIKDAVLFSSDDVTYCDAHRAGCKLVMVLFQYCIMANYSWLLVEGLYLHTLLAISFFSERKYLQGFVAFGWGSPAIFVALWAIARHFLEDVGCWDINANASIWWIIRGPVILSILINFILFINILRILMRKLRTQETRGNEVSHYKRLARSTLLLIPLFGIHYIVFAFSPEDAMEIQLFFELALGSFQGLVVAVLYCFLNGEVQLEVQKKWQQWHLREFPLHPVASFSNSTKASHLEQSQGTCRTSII

`CC(C)C[C@H](NC(=O)[C@H](Cc1ccccc1)NC(=O)[C@H](CCCNC(=N)N)NC(=O)[C@H](CCC(N)=O)NC(=O)C(C)(C)NC(=O)C(C)(C)NC(=O)[C@H](C)NC(=O)[C@H](CCC(=O)O)NC(=O)[C@H](CCC(=O)O)NC(=O)[C@H](CCCCNC(=O)COCCOCCNC(=O)COCCOCCNC(=O)CC[C@H](NC(=O)CCCCCCCCCCCCCCCCCCC(=O)O)C(=O)O)NC(=O)[C@H](CC(C)C)NC(=O)[C@H](Cc1ccc(O)cc1)NC(=O)[C@H](CO)NC(=O)[C@@H](NC(=O)[C@H](CC(=O)O)NC(=O)[C@H](CO)NC(=O)[C@@H](NC(=O)[C@H](Cc1ccccc1)NC(=O)[C@@H](NC(=O)CNC(=O)[C@H](CCC(=O)O)NC(=O)C(C)(C)NC(=O)[C@@H](N)Cc1c[nH]cn1)[C@@H](C)O)[C@@H](C)O)C(C)C)C(=O)N[C@@H](CCC(=O)O)C(=O)N[C@@H](Cc1c[nH]cn1)C(=O)N[C@@H](CC(C)C)C(=O)N[C@H](C(N)=O)C(C)C` [compound 152] (H-H[Aib]EGTFTSDVSYLK([AEEA-AEEA-γGlu-C20 diacid])EEA[Aib][Aib]QRFLEHLV-NH2): the “Turbidity (pH 7)” value in data set [1] was found to be 0.08. This compound had a Fibril formation in data set [2] of 3105. Further, at GLP1R, the EC50 is 0.0126 nM and the “SCTR EC50/GLP1R EC50 ratio” value was 367578. Moreover, the EC50 at SCTR was 3980 nM.
With `CC(C)C[C@H](NC(=O)[C@H](Cc1ccccc1)NC(=O)[C@H](CCCNC(=N)N)NC(=O)[C@H](CCC(N)=O)NC(=O)[C@H](CC(C)C)NC(=O)C(C)(C)NC(=O)[C@H](C)NC(=O)[C@H](CCC(=O)O)NC(=O)[C@H](CCC(=O)O)NC(=O)[C@H](CCCCNC(=O)COCCOCCNC(=O)COCCOCCNC(=O)CC[C@H](NC(=O)CCCCCCCCCCCCCCCCCCC(=O)O)C(=O)O)NC(=O)[C@H](CC(C)C)NC(=O)[C@H](CC(=O)O)NC(=O)[C@H](CO)NC(=O)[C@@H](NC(=O)[C@H](CC(=O)O)NC(=O)[C@H](CO)NC(=O)[C@@H](NC(=O)[C@H](Cc1ccccc1)NC(=O)[C@@H](NC(=O)CNC(=O)[C@H](CCC(=O)O)NC(=O)C(C)(C)NC(=O)[C@@H](N)Cc1c[nH]cn1)[C@@H](C)O)[C@@H](C)O)C(C)C)C(=O)N[C@@H](CCC(=O)O)C(=O)N[C@@H](Cc1c[nH]cn1)C(=O)N[C@@H](CC(C)C)C(=O)N[C@H](C(N)=O)C(C)C` [compound 153] (H-H[Aib]EGTFTSDVSDLK([AEEA-AEEA-γGlu-C20 diacid])EEA[Aib]LQRFLEHLV-NH2), the “Turbidity (pH 7)” value in data set [1] came out at 0.08. The compound further gave a Fibril formation in data set [2] of 3897. Besides, the EC50 on GLP1R is 0.02 nM; at SCTR, 316 nM. Also, the “SCTR EC50/GLP1R EC50 ratio” value at GLP1R is given as 16095.
In the case of `CC(C)C[C@H](NC(=O)[C@H](Cc1ccccc1)NC(=O)[C@H](CCCNC(=N)N)NC(=O)[C@H](CCC(N)=O)NC(=O)CNC(=O)C(C)(C)NC(=O)[C@H](C)NC(=O)[C@H](CCC(=O)O)NC(=O)[C@H](CCC(=O)O)NC(=O)[C@H](CCCCNC(=O)COCCOCCNC(=O)COCCOCCNC(=O)CC[C@H](NC(=O)CCCCCCCCCCCCCCCCCCC(=O)O)C(=O)O)NC(=O)[C@H](CC(C)C)NC(=O)[C@H](Cc1ccc(O)cc1)NC(=O)[C@H](CO)NC(=O)[C@@H](NC(=O)[C@H](CC(=O)O)NC(=O)[C@H](CO)NC(=O)[C@@H](NC(=O)[C@H](Cc1ccccc1)NC(=O)[C@@H](NC(=O)CNC(=O)[C@H](CCC(=O)O)NC(=O)C(C)(C)NC(=O)[C@@H](N)Cc1c[nH]cn1)[C@@H](C)O)[C@@H](C)O)C(C)C)C(=O)N[C@@H](CCC(=O)O)C(=O)N[C@@H](Cc1c[nH]cn1)C(=O)N[C@@H](CC(C)C)C(=O)N[C@H](C(N)=O)C(C)C` [compound 154] (H-H[Aib]EGTFTSDVSYLK([AEEA-AEEA-γGlu-C20 diacid])EEA[Aib]GQRFLEHLV-NH2), in data set [1], the “Turbidity (pH 7)” value is recorded as 0.08. Further, the Fibril formation in data set [2] came to 3107. The EC50 is 0.0158 nM at GLP1R and 3980 nM on SCTR. Besides, the “SCTR EC50/GLP1R EC50 ratio” value on GLP1R was found to be 203892.
Regarding `CC(C)C[C@H](NC(=O)[C@H](Cc1ccccc1)NC(=O)[C@H](CCCNC(=N)N)NC(=O)[C@H](CCC(N)=O)NC(=O)[C@H](CC(C)C)NC(=O)C(C)(C)NC(=O)[C@H](C)NC(=O)[C@H](CCC(=O)O)NC(=O)[C@H](CCC(=O)O)NC(=O)[C@H](CCCCNC(=O)COCCOCCNC(=O)COCCOCCNC(=O)CC[C@H](NC(=O)CCCCCCCCCCCCCCCCCCC(=O)O)C(=O)O)NC(=O)[C@H](CC(C)C)NC(=O)[C@H](Cc1ccc(O)cc1)NC(=O)[C@H](CO)NC(=O)[C@@H](NC(=O)[C@H](CC(=O)O)NC(=O)[C@H](CO)NC(=O)[C@@H](NC(=O)[C@H](Cc1ccccc1)NC(=O)[C@@H](NC(=O)CNC(=O)[C@@H](NC(=O)C(C)(C)NC(=O)[C@@H](N)Cc1c[nH]cn1)C(C)C)[C@@H](C)O)[C@@H](C)O)C(C)C)C(=O)N[C@@H](CCC(=O)O)C(=O)N[C@@H](Cc1c[nH]cn1)C(=O)N[C@@H](CC(C)C)C(=O)N[C@H](C(N)=O)C(C)C` [compound 155] (H-H[Aib]VGTFTSDVSYLK([AEEA-AEEA-γGlu-C20 diacid])EEA[Aib]LQRFLEHLV-NH2), the “Turbidity (pH 7)” value in data set [1] is 0.08. Further, the Fibril formation in data set [2] stood at 4368. Further, the EC50 on GLP1R is 0.0126 nM; on SCTR, 25100 nM. The “SCTR EC50/GLP1R EC50 ratio” value on GLP1R came to 1853532.
Consider `CC(C)C[C@H](NC(=O)[C@H](Cc1ccccc1)NC(=O)[C@H](CCCNC(=N)N)NC(=O)[C@H](CCC(N)=O)NC(=O)[C@H](CCC(N)=O)NC(=O)C(C)(C)NC(=O)[C@H](C)NC(=O)[C@H](CCC(=O)O)NC(=O)[C@H](CCC(=O)O)NC(=O)[C@H](CCCCNC(=O)COCCOCCNC(=O)COCCOCCNC(=O)CC[C@H](NC(=O)CCCCCCCCCCCCCCCCCCC(=O)O)C(=O)O)NC(=O)[C@H](CC(C)C)NC(=O)[C@H](Cc1ccc(O)cc1)NC(=O)[C@H](CO)NC(=O)[C@@H](NC(=O)[C@H](CC(=O)O)NC(=O)[C@H](CO)NC(=O)[C@@H](NC(=O)[C@H](Cc1ccccc1)NC(=O)[C@@H](NC(=O)CNC(=O)[C@H](CCC(=O)O)NC(=O)C(C)(C)NC(=O)[C@@H](N)Cc1c[nH]cn1)[C@@H](C)O)[C@@H](C)O)C(C)C)C(=O)N[C@@H](CCC(=O)O)C(=O)N[C@@H](Cc1c[nH]cn1)C(=O)N[C@@H](CC(C)C)C(=O)N[C@H](C(N)=O)C(C)C` [compound 157] (H-H[Aib]EGTFTSDVSYLK([AEEA-AEEA-γGlu-C20 diacid])EEA[Aib]QQRFLEHLV-NH2), for which, in data set [1], the “Turbidity (pH 7)” value stood at 0.09. Further, the Fibril formation in data set [2] is listed as 3415. The EC50 on GLP1R is 0.00251 nM; at SCTR it was 316 nM. The “SCTR EC50/GLP1R EC50 ratio” value at GLP1R is 121171.
As for `CC(C)C[C@H](NC(=O)[C@H](Cc1ccccc1)NC(=O)[C@H](CCCNC(=N)N)NC(=O)[C@H](CCC(N)=O)NC(=O)[C@H](CC(C)C)NC(=O)C(C)(C)NC(=O)[C@H](C)NC(=O)[C@H](CCC(=O)O)NC(=O)[C@H](CCC(=O)O)NC(=O)C(C)(C)NC(=O)[C@H](CC(C)C)NC(=O)[C@H](Cc1ccc(O)cc1)NC(=O)[C@H](CO)NC(=O)[C@@H](NC(=O)[C@H](CC(=O)O)NC(=O)[C@H](CO)NC(=O)[C@@H](NC(=O)[C@H](Cc1ccccc1)NC(=O)[C@@H](NC(=O)CNC(=O)[C@H](CCC(=O)O)NC(=O)C(C)(C)NC(=O)[C@@H](N)Cc1c[nH]cn1)[C@@H](C)O)[C@@H](C)O)C(C)C)C(=O)N[C@@H](CCC(=O)O)C(=O)N[C@@H](CCCCNC(=O)COCCOCCNC(=O)COCCOCCNC(=O)CC[C@H](NC(=O)CCCCCCCCCCCCCCCCCCC(=O)O)C(=O)O)C(=O)N[C@@H](CC(C)C)C(=O)N[C@H](C(N)=O)C(C)C` [compound 158] (H-H[Aib]EGTFTSDVSYL[Aib]EEA[Aib]LQRFLEK([AEEA-AEEA-γGlu-C20 diacid])LV-NH2), in data set [1], the “Turbidity (pH 7)” value was 0.08. Moreover, the Fibril formation in data set [2] was 4465. At GLP1R, the EC50 is 0.0398 nM and the “SCTR EC50/GLP1R EC50 ratio” value amounted to 41049. Further, the EC50 on SCTR was 1580 nM.
On to `CC(C)C[C@H](NC(=O)[C@H](Cc1ccccc1)NC(=O)[C@H](CCCNC(=N)N)NC(=O)[C@H](CCC(N)=O)NC(=O)[C@H](CC(C)C)NC(=O)C(C)(C)NC(=O)[C@H](C)NC(=O)[C@H](CCC(=O)O)NC(=O)[C@H](CCC(=O)O)NC(=O)[C@H](CCCCNC(=O)COCCOCCNC(=O)COCCOCCNC(=O)CC[C@H](NC(=O)CCCCCCCCCCCCCCCCCCC(=O)O)C(=O)O)NC(=O)[C@H](CC(C)C)NC(=O)[C@H](Cc1ccc(O)cc1)NC(=O)[C@H](CO)NC(=O)[C@@H](NC(=O)[C@H](CC(=O)O)NC(=O)[C@H](CO)NC(=O)[C@@H](NC(=O)[C@H](Cc1ccccc1)NC(=O)[C@@H](NC(=O)CNC(=O)[C@H](Cc1ccc(O)cc1)NC(=O)C(C)(C)NC(=O)[C@@H](N)Cc1c[nH]cn1)[C@@H](C)O)[C@@H](C)O)C(C)C)C(=O)N[C@@H](CCC(=O)O)C(=O)N[C@@H](Cc1c[nH]cn1)C(=O)N[C@@H](CC(C)C)C(=O)N[C@H](C(N)=O)C(C)C` [compound 159] (H-H[Aib]YGTFTSDVSYLK([AEEA-AEEA-γGlu-C20 diacid])EEA[Aib]LQRFLEHLV-NH2), for which, in data set [1], the “Turbidity (pH 7)” value amounted to 0.08. The same compound registered a Fibril formation in data set [2] of 5426. The EC50 on GLP1R was 0.794 nM; at SCTR, 25100 nM. On GLP1R, the “SCTR EC50/GLP1R EC50 ratio” value amounted to 34730.

The values above are taken from patent US20260201008A1, “SECRETIN-DERIVED GLP1R SELECTIVE AGONISTS” (GUBRA A/S, priority 2023, published 2026).
